Target: T1, human PAD4 (Homo sapiens, UniProt Q9UM07)
T1 construct: human PAD4 (NM_012387), A2-P663, was PCR amplified; His-SUMO (N, cleaved yes); made in house; host or cells: E. coli BL21(DE3)
Assay: In vitro PAD4 BAEE biochemical assay
Settings: BAEE substrate 3 mM, 5 nM PAD4, 2 mM calcium chloride; geometric mean of multiple experiments
Method in brief: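 Recombinant PAD4 (5 nM final) with 2 mM CaCl2 was preincubated with compound for 30 min at 25 °C in MOPS pH 7.6 buffer with DTT, then reacted with 3 mM BAEE for 2 h at 25 °C. Released ammonia was detected fluorimetrically with o-phthalaldehyde/DTT; IC50 from four-parameter fit, geometric mean of experiments.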

T1 sequence (Q9UM07 2-663): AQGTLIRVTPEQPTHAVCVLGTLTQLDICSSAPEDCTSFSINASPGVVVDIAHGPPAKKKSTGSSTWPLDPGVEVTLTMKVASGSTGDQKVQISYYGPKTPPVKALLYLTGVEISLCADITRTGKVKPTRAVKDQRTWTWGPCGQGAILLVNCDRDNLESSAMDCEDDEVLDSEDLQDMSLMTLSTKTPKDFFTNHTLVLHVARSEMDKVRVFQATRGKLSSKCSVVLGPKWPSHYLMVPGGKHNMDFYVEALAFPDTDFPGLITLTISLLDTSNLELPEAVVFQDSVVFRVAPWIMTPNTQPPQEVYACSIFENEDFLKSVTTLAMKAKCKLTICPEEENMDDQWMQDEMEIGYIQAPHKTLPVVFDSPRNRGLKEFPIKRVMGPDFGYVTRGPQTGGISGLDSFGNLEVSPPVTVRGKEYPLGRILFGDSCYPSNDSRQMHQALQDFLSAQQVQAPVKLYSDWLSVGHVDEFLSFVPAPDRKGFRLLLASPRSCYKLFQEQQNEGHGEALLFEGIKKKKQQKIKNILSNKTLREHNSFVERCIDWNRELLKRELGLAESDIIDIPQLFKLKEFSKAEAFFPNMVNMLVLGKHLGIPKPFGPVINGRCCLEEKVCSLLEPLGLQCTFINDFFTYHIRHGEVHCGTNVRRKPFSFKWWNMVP

Row | Structure (SMILES) | IC50
1 | COc1cc(C(=O)N2CC[C@@H](F)[C@@H](N)C2)cc2nc(-c3cc4ccc5nc4n3CCCCCCC(C)(C)C(=O)N[C@@H]5C)n(C)c12 [Example 276, (11~{R})-17-[5-[(3~{S},4~{R})-3-amino-4-fluoro-piperidine-1-carbonyl]-7-methoxy-1-methyl-benzimidazol-2-yl]-8,8,11-trimethyl-1,10,19-triazatricyclo[10.5.2.0^{15,18}]nonadeca-12(19),13,15(18),16-tetraen-9-one] | 343 nM
2 | COC[C@@]12C[C@@H]1CCCCCn1c(-c3nc4cc(C(=O)N5CC[C@@H](OC)[C@@H](N)C5)cc(OC)c4n3C)cc3ccc(nc31)[C@@H](C)NC2=O [Example 865, (2~{R},5~{R},7~{S})-14-[5-[(3~{S},4~{R})-3-amino-4-methoxy-piperidine-1-carbonyl]-7-methoxy-1-methyl-benzimidazol-2-yl]-5-(methoxymethyl)-2-methyl-3,13,19-triazatetracyclo[11.5.2.0^ {5,7}.0^{16,20}]icosa-1(19), 14,16(20),17-tetraen-4-one] | 230 nM
3 | COc1cc(C(=O)N[C@H]2CNCC[C@@H]2C(F)(F)F)cc2nc(-c3cc4ccc5nc4n3CCCCCCC(C)(C)C(=O)N[C@@H]5C)n(C)c12 [Example 380, 7-methoxy-1-methyl-~{N}-[(3~{R},4~{S})-4-(trifluoromethyl)-3-piperidyl]-2-[(11~{R})-8,8,11-trimethyl-9-oxo-1,10,19-triazatricyclo[10.5.2.0^{15,18}]nonadeca-12(19),13,15(18),16-tetraen-17-yl]benzimidazole-5-carboxamide] | 1270 nM
4 | COc1cc(C(=O)N2CC[C@@H](OC)[C@@H](N)C2)cc2nc(-c3cc4ccc5nc4n3CCC/C=C/c3ccccc3C(=O)N[C@@H]5C)n(C)c12 [Example 496, (2~{R},11~{E})-17-[5-[(3~{S},4~{R})-3-amino-4-methoxy-piperidine-1-carbonyl]-7-methoxy-1-methyl-benzimidazol-2-yl]-2-methyl-3,16,22-triazatetracyclo[14.5.2.0^ {5,10).0^{19,23}]tricosa-1(22),5(10),6,8,11,17,19 (23),20-octaen-4-one] | 125 nM
5 | COc1cc(C(=O)N[C@H]2CNCC[C@@H]2F)cc2nc(-c3cc4ccc5nc4n3CCCCCc3cnn(C)c3C(=O)N[C@@H]5C)n(C)c12 [Example 181, 2-[(2~{R})-2,6-dimethyl-4-oxo-3,6,7,15,21-pentazatetracyclo[13.5.2.0^{5,9}.0^{18,22}]docosa-1(21),5(9),7,16,18(22),19-hexaen-16-yl]-~{N}-[(3~{S},4~{S})-4-fluoro-3-piperidyl]-7-methoxy-1-methyl-benzimidazole-5-carboxamide] | 171 nM
6 | COc1cc(C(=O)N2CC[C@@H](C(F)(F)F)[C@@H](N)C2)cc2nc(-c3cc4ccc5nc4n3CCCCCCC(C)(C)C(=O)N[C@@H]5C)n(C)c12 [Example 192, (11~{R})-17-[5-[(3~{R},4~{R})-3-amino-4-(trifluoromethyl)piperidine-1-carbonyl]-7-methoxy-1-methyl-benzimidazol-2-yl]-8,8,11-trimethyl-1,10,19-triazatricyclo[10.5.2.0^{15,18}]nonadeca-12(19),13,15(18),16-tetraen-9-one] | 6690 nM
7 | COc1cc(C(=O)N2CCC[C@@H](N)C2)cc2nc(-c3cc4ccc5nc4n3CCCOC[C@@H]3C[C@@H]3C(=O)N[C@@H]5C)n(C)c12 [Example 309, (2~{R},5~{S},7~{R})-14-[5-[(3~{R})-3-aminopiperidine-1-carbonyl]-7-methoxy-1-methyl-benzimidazol-2-yl]-2-methyl-9-oxa-3,13,19-triazatetracyclo[11.5.2.0^{5,7}.0^{16,20}] icosa-1(19),14,16(20),17-tetraen-4-one] | 1380 nM

The next compounds have a lower IC50 than those just listed; values first:

Row | IC50 | Structure (SMILES)
8 | 88 nM | C[C@H]1NC(=O)[C@@H]2[C@@H](CCCC(F)(F)Cn3c(-c4nc5cc(C(=O)N[C@H]6CNCC[C@@H]6F)c(F)cc5n4C4CC4)cc4ccc1nc43)C2(F)F [Example 390, 1-cyclopropyl-6-fluoro-~{N}-[(3~{S},4~{S})-4-fluoro-3-piperidyl]-2-[(2~{R},5~{S},7~{R})-6,6,11,11-tetrafluoro-2-methyl-4-oxo-3,13,19-triazatetracyclo[11.5.2.0^{5,7}.0^{16,20}]icosa-1(19),14,16(20),17-tetraen-14-yl]benzimidazole-5-carboxamide]
9 | 79 nM | COc1cc(C(=O)N2CC[C@@H](OC)[C@@H](N)C2)cc2nc(-c3cc4ccc5nc4n3CCCc3cccc(c3)CC(=O)N[C@@H]5C)n(C)c12 [Example 866, (13˜{R})-19-[5-[(3˜{S},4˜{R})-3-amino-4-methoxy-piperidine-1-carbonyl]-7-methoxy-1-methyl-benzimidazol-2-yl]-13-methyl-1,12,21-triazatetracyclo[12.5.2.1^{5,9}.0^{17,20}]docosa-5,7,9(22),14(21),15,17(20),18-heptaen-11-one]
10 | 74 nM | C[C@H]1NC(=O)C(C)(C)CCCCCn2c(-c3nc4cc(C(=O)N[C@H]5CNCC[C@@H]5F)c(F)cc4n3C3CC3)cc3ccc1nc32 [Example 515, 1-cyclopropyl-6-fluoro- ~{N}-[(3~{S},4~{S})-4-fluoro-3-piperidyl]-2-[(10~{R})-7,7,10-trimethyl-8-oxo-1,9,18-triazatricyclo [9.5.2.0^{14,17}]octadeca-11(18),12,14(17),15-tetraen-16-yl]benzimidazole-5-carboxamide]
11 | 70 nM | COc1cc(C(=O)N2CCC[C@@H](N)C2)cc2nc(-c3cc4ccc5nc4n3CCCCCCc3ccccc3C(=O)N[C@@H]5C)n(C)c12 [Example 29, (2~{R})-18-[5-[(3~{R})-3-aminopiperidine-1-carbonyl]-7-methoxy-1-methyl-benzimidazol-2-yl]-2-methyl-3,17,23-triazatetracyclo[15.5.2.0^{5,10}.0^{20,24}] tetracosa-1(23),5,7,9,18,20(24),21-heptaen-4-one]
12 | 69 nM | COc1cc(C(=O)N2CC[C@@H](OC)[C@@H](N)C2)cc2nc(-c3cc4ccc5nc4n3CCCCC[C@@H]3C[C@@]3(C)C(=O)N[C@@H]5C)n(C)c12 [Example 583, (2~{R},5~{R},7~{R})-14-[5-[(3~{S),4~{R})-3-amino-4-methoxy-piperidine-1-carbonyl]-7-methoxy-1-methyl-benzimidazol-2-yl]-2,5-dimethyl-3,13,19-triazatetracyclo[11.5.2.0^ {5,7}.0^{16,20}]icosa-1(19), 14,16(20),17-tetraen-4-one]
13 | 50 nM | CO[C@@H]1CCN(C(=O)c2cc(F)c3c(c2)nc(-c2cc4ccc5nc4n2CCCCCC2C[C@H]2C(=O)N[C@@H]5C)n3C2CC2)C[C@@H]1N (stereo partly drawn) [Example 579, (2~{R},5~{R},7~{R})-14-[5-[(3~{S),4~{R})-3-amino-4-methoxy-piperidine-1-carbonyl]-1-cyclopropyl-7-fluoro-benzimidazol-2-yl]-2-methyl-3,13,19-triazatetracyclo [11.5.2.0^{5,7}.0^{16,20}] icosa-1(19),14,16(20), 17-tetraen-4-one]
14 | 44 nM | CCn1c(-c2cc3ccc4nc3n2CCCCCc2nc(Cl)ccc2C(=O)N[C@@H]4C)nc2cc(C(=O)N3C[C@H](N)[C@@H]4CC[C@H]3C4)cc(F)c21 [Example 939, (2~{R})-17-[5-[(1~{S),4~{R}, 5~{R})-4-amino-2-azabicyclo [3.2.1]octane-2-carbonyl]-1-ethyl-7-fluoro-benzimidazol-2-yl]-8-chloro-2-methyl-3,9,16,22-tetrazatetracyclo[14.5.2.0^ {5,10}.0^{19,23}]tricosa-1(22),5(10),6,8,17,19(23),20-heptaen-4-one]
15 | 37 nM | COc1cc(C(=O)N2[C@H]3CC[C@@H]2[C@H](N)C3)cc2nc(-c3cc4ccc5nc4n3CCCCCCCC(=O)N3C[C@@H]4C[C@@H]4[C@H]53)n(C)c12 [Example 135, (2~{R),3~{S},5~{R})-17-[5-[(1~{R},2~{R},4~{S})-2-amino-7-azabicyclo[2.2.1]heptane-7-carbonyl]-7-methoxy-1-methyl-benzimidazol-2-yl]-7,16,22-triazapentacyclo [14.5.2.0^{2,7}.0^{3,5}.0^{19,23}] tricosa-1(22),17,19(23),20-tetraen-8-one]
16 | 36 nM | COc1cc(C(=O)N2CCC[C@@H](N)C2)cc2nc(-c3cc4ccc5nc4n3CCCCC[C@@H]3C[C@H]3C(=O)N[C@@H]5C)n(C)c12 [Example 157, (2~{R},5~{R},7~{R})-14-[5-[(3~{R})-3-aminopiperidine-1-carbonyl]-7-methoxy-1-methyl-benzimidazol-2-yl]-2-methyl-3,13,19-triazatetracyclo[11.5.2.0^{5,7}.0^{16,20}] icosa-1(19),14,16(20),17-tetraen-4-one]
17 | 36 nM | C[C@H]1NC(=O)[C@@H]2C[C@H]2CCCC(F)(F)Cn2c(-c3nc4cc(C(=O)N5C[C@H](N)[C@@H]6CC[C@H]5C6)c(F)cc4n3C3CC3)cc3ccc1nc32 [Example 455, (2~{R},5~{R},7~{R})-14-[5-[(1~{S},4~{R},5~{R})-4-amino-2-azabicyclo[3.2.1]octane-2-carbonyl]-1-cyclopropyl-6-fluoro-benzimidazol-2-yl]-11,11-difluoro-2-methyl-3,13,19-triazatetracyclo[11.5.2.0^{5,7}.0^{16,20}] icosa-1(19),14,16(20),17-tetraen-4-one]
18 | 31 nM | C[C@H]1NC(=O)[C@@H]2C[C@H]2CCCC(F)(F)Cn2c(-c3nc4cc(C(=O)N5C[C@H](N)[C@@H]6CC[C@H]5C6)cc(F)c4n3[C@@H]3C[C@H]3C(F)F)cc3ccc1nc32 [Example 454, (2~{R},5~{R},7~{R})-14-[5-[(1~{S),4~{R},5~{R})-4-amino-2-azabicycło[3.2.1]octane-2-carbonyl]-1-[(1~{R},2~{R})-2-(difluoromethyl)cyclopropyl]-7-fluoro-benzimidazol-2-yl]-11,11-difluoro-2-methyl-3,13,19-triazatetracyclo[11.5.2.0^{5,7}.0^{16,20}] icosa-1(19),14,16(20),17-tetraen-4-one]
